Several values for one entry are separate records, joined by “and”; a condition that tells them apart may be missing. Equal values may be shown once. Read-outs that look alike come from different tables or passages of the source.

One test addresses T1, ENT1 (Homo sapiens, UniProt Q99808).
T1 construct: The complete ORF of ENT1 (amplified using forward primer); expressed in transfected cells; host or cells: Xenopus laevis oocytes injected with in vitro-transcribed capped mRNA from pOX-hENT1
T1 sequence (Q99808 1-456): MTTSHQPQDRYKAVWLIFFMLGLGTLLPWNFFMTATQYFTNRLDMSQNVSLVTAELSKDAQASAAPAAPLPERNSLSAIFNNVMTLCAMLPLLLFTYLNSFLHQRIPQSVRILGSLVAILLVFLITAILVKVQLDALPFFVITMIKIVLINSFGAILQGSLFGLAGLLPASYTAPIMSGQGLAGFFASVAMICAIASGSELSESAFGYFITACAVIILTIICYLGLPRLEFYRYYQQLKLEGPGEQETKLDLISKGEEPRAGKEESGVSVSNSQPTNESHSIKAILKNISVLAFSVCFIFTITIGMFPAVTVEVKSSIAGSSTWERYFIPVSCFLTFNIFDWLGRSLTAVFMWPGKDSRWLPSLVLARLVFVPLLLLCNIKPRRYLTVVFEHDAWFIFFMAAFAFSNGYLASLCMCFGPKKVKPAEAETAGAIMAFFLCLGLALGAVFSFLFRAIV
Briefly: Inhibition of 3H-nucleoside influx by BAs in ENT1-expressing Xenopus oocytes. The conditions noted are these: 3H-Ado 20 μM, sodium-free buffer; for ENT1 % uptake inhibition (Ado): BA 100 μM. It is filed as cell-based. From the text:
We expressed individual ENTs (ENT1, ENT2, and ENT3) in X. laevis oocytes (as described above) and analyzed the Ado influx from each of the ENTs in the presence of different BAs to better understand whether the inhibition profiles differ across human ENTs. […] We also conducted an analysis of the concentration-dependent inhibition of Ado transport to estimate the IC50 values of the BAs (Fig. 4, D–F and Table 2).
Inhibition of Ado influx in H2O- and ENT-injected oocytes by treatment with different BAs at 100 μM. D–F, concentration-dependent inhibition of Ado influx in ENT-injected oocytes by different BAs. The bars represent the mean ± SD (n = 8–12 oocytes). A representative experiment from 3 to 5 independent experiments is presented. Statistical analysis was performed using one-way ANOVA with Dunnett’s multiple comparisons test; ∗p < 0.032, ∗∗p < 0.0021, ∗∗∗∗p < 0.0001.
The generated pOX expression constructs were linearized with either the Not1 or Sac1 restriction enzymes. The digested products were purified via phenol‒chloroform extraction. The mRNAs were synthesized using mMESSAGE mMACHINE (Ambion) transcription kits according to the manufacturer’s instructions. The mRNAs were purified via lithium precipitation. Oocytes were procured from Ecocyte. Prior to experiments, procured oocytes were defolliculated by treating with collagenase A-OR II solution followed by washing with Barth’s solution. Following microscopic verification, selected oocytes were incubated to recover overnight at 25 °C in a shaker incubator. Fifty nanoliters (400–800 ng/μl) of equal amounts of mRNAs were injected into defolliculated oocytes the next day. Expression of plasmids was analyzed after RNA isolation from oocyte extracts and conducting qPCR analysis with gene-specific primers as described earlier ([30]). The injected oocytes were incubated at 15 °C for 24 h before transport assays were performed. […] Uptake was terminated by washing the oocytes three times with arrest buffer containing 20 mM uridine. Individual oocytes were shaken overnight in 10% SDS for complete dissolution, and then the radioactivity was quantified with a Beckman liquid scintillation counter. The data are presented as the mean ± SD (n = 8–12 oocytes). A representative experiment from 3 to 5 independent experiments is presented.

The target in the next test is T2, ENT3 (Homo sapiens, UniProt Q9BZD2).
T2 construct: plasma membrane–directed ENT3 with a truncated N-terminus (that harbors lysosomal targeting motif); expressed in transfected cells; host or cells: Xenopus laevis oocytes injected with in vitro-transcribed mRNA from pOX-Δ36hENT3
T2 sequence (Q9BZD2 with tags, fused parts or gaps): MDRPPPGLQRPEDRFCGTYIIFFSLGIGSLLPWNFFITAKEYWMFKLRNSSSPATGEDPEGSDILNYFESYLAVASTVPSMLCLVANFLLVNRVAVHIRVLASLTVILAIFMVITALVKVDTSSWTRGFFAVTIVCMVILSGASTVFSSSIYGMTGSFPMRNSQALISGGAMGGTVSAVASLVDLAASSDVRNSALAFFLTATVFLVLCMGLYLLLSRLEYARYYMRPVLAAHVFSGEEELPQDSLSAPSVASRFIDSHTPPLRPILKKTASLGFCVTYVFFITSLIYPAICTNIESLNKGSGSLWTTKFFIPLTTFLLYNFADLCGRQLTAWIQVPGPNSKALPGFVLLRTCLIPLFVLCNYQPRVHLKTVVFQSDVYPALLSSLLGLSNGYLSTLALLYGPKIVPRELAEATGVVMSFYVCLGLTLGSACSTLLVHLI
More on the design: method as in PMID 33623001. The conditions noted are these: previous studies, cited from earlier work; for Km: read-out: Km of BA transport by ENT3.

[1] abbreviates: read-out: ENT1 IC50 (Ado uptake).

With `C[C@H](CCC(=O)O)[C@H]1CC[C@H]2[C@@H]3[C@H](O)C[C@@H]4C[C@H](O)CC[C@]4(C)[C@H]3C[C@H](O)[C@]12C` [CA, cholic acid], at ENT1 (setting [1]), the IC50 worked out at 42.1 ± 8.7 µM. Moreover, the “ENT1 % uptake inhibition (Ado)” value at ENT1 is on record as 45.48%. Besides, at ENT3, the “Vmax of BA transport by ENT3” value is listed as 3.07 ± 0.04 pmol/30 min/oocyte and the Km is 168 ± 13.3 µM.

`C[C@H](CCC(=O)O)[C@H]1CC[C@H]2[C@@H]3CC[C@@H]4C[C@H](O)CC[C@]4(C)[C@H]3C[C@H](O)[C@]12C` [DCA, deoxycholic acid]: the IC50 at ENT1 (setting [1]) was 56.4 ± 14.9 µM. Moreover, on ENT1, the “ENT1 % uptake inhibition (Ado)” value is 69% and 71.01%. Besides, on ENT3, the “Vmax of BA transport by ENT3” value is given as 3.4 ± 0.06 pmol/30 min/oocyte and the Km is 270 ± 24.3 µM.

For the compound `C[C@H](CCC(=O)NCCS(=O)(=O)O)[C@H]1CC[C@H]2[C@@H]3[C@H](O)C[C@@H]4C[C@H](O)CC[C@]4(C)[C@H]3C[C@H](O)[C@]12C` [TCA, taurocholic acid], the “ENT1 % uptake inhibition (Ado)” value on ENT1 was 80.39%. Further, the half-maximal inhibitory concentration (IC50) against ENT1 (ENT1 IC50 (Ado uptake)) was 52.9 ± 14.6 µM.

Source of the values: paper PMC12152883, “Bile acids inhibit equilibrative adenosine transport to alter adenosine receptor signaling in cholestasis” (The Journal of Biological Chemistry, 2025).
